Assay results taken from US6342602B1, “Aryl or heteroaryl amides of tetrahydronaphthalene, chroman, thichroman and 1,2,3,4-tetrahydroquinolinecarboxlic acids, having an electron withdrawing substituent in the aromatic or heteroaromatic moiety, having retinoid-like biological activity” (Allergan Sales, Inc., priority 1995, dated 2002).

How the values were obtained:
ME-180 = experiment: Cancer cell line assay, incorporation of 3H-thymidine; type: cell-based, human; conditions: 10^−11 to 10^−6 molar concentration range, 96 hours
Procedure: (§1) All trans-Retinoic acid (t-RA) (Sigma Chemicals Co., St. Louis, M.) was stored at −70° C. Prior to each experimet the compound was dissolved in 100% ethanol at 1 mM and diluted in culture medium immediately before use. All experiments were performed in subdued light. Controls were assayed using the same concentration of ethanol as present in the experimental plates and this concentration of diluent had no effect in either assay.
ME-180 is a human epidermoid carcinoma cell line derived from the cervix. The tumor was a highly invasive squamous cell carcinoma with irregular cell clusters and no significant keratinization. ME-180 cells were grown and maintained in McCoy's 5a medium (Gibco) supplemented with 10% fetal bovine serum, glutamine and antibiotics. The cells were maintained as monolayer cultures grown at 37° C. in a humidified atmosphere of 5% CO2 in air. The cells were diluted to a concentration of 1×10^5/ml twice a week.
(§2) ME-180 wells, harvested by trypsinization were plated in a 96 well flat bottom microtiter plate (Costar) at a density of 2,000 cells/well. The cultures were treated as described above for RPMI 8226 with the following exceptions. After incubation with thymidine the supernatant was carefully removed, and the cells were washed with a 0.5 mM solution of thymidine in phosphate buffered saline. ME180 cells were briefly treated with 50 μl of 2.5% trypsin to dislodge the cells from the plate. AML-193 cells were plated in a 96 well round bottom microtiter plate (Costar) at a density of 1,000 cells/well. To appropriate wells, retinoid test compounds were added at the final concentrations indicated for a final volume of 150 μl/well. The plates were incubated for 96 hours at 37° C. in a humidified atmosphere of 5% CO2 in air. Subsequently, 1 μCi of [5′-^3H]-thymidine (Amersham, U.K., 43 Ci/mmol specific activity) in 25 μl culture medium was added to each well and the cells were incubated for an additional 6 hours.
(§3) All cells lines were then processed as follows: the cellular DNA was precipitated with […] trichloroacetic acid onto glass fiber filter mats using a SKATRON multi-well cell harvester (Skatron Instruments, Sterling Va.). Radioactivity incorporated into DNA, as a direct measurement of cell growth, was measured by liquid scintillation counting. The numbers represent the mean disintegrations per minute of incorporated thymidine from triplicate wells±SEM.

AML-193 = experiment: as above; type: cell-based; conditions: 10^−11 to 10^−6 molar concentration range, 96 hours
Procedure: as §1
AML-193 was established from the blast cells classified as M5 Acute Monocyte Leukemia. The growth factor, […] (GM-CSF) was required to establish this cell line and growth factors are necessary for its continuous proliferation in chemically defined medium. AML-193 cells were grown and maintained in Iscove's modified Dulbeccous medium supplemented with 10% fetal bovine serum, glutamine and antibiotics with 5 μg/ml insulin (Sigma Chemical Co.) and 2 ng/ml rh GM-CSF (R and D Systems). The cells were diluted to a concentration of 3×10^5/ml twice a week.
as §2, §3

| Structure (SMILES) | proliferation of the tumor cell line (incorporation of radioactive labeled thymidine) (ME-180) | proliferation of the tumor cell line (incorporation of radioactive labeled thymidine) (AML-193) |
| --- | --- | --- |
| CC1(C)CC(C)(C)c2cc(C(=O)Nc3ccc(C(=O)O)c(F)c3)cc(Br)c2O1 [Compound 12] | significant decrease in the proliferation | significant decrease in the proliferation |
| CC1(C)CC(C)(C)c2cc(C(=O)Nc3ccc(C(=O)O)c(F)c3)cc(I)c2O1 [Compound 20] | significant decrease in the proliferation | significant decrease in the proliferation |
| CC1(C)CC(C)(C)c2cc(C(=O)Nc3ccc(C(=O)O)c(F)c3)cc(C(F)(F)F)c2O1 [Compound 14] | significant decrease in the proliferation | significant decrease in the proliferation |
| CC1(C)CCC(C)(C)c2c(Br)cc(C(=O)Nc3ccc(C(=O)O)c(F)c3)cc21 [Compound 6] | significant decrease in the proliferation | significant decrease in the proliferation |
| CC1(C)CCC(C)(C)c2cc(C(=O)Nc3ccc(C(=O)O)c(F)c3)c(O)cc21 [Compound 8] | significant decrease in the proliferation | significant decrease in the proliferation |
